{"source": "patent US8852587B2", "about": "(priority 2008, dated 2014)", "target": "PrP^Sc (Mus musculus, UniProt P04925)", "sequence (P04925 23-230 limits assumed)": "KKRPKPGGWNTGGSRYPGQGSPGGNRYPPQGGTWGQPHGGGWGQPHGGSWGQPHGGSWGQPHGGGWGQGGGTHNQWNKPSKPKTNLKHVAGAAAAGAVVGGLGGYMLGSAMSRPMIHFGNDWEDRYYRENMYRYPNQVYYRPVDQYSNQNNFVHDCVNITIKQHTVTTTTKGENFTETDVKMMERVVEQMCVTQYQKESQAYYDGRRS", "format": "binding", "key": {"[1]": {"conditions": "affinity for PrPSc pulldown compared to peptide LH3 (CDR3H)"}, "[2]": {"conditions": "pull-down, compared to peptide LH3"}, "[3]": {"conditions": "pull-down, compared to peptide LH3 (CDR3H)"}}, "note": "Like-named read-outs stand apart in the source and are kept apart here.", "data": [{"substance": "YFCADWNWERDAMDYWG [LH3D5]", "values": [{"measurement": "Specificity", "result": "PrP^Sc"}, {"measurement": "change of affinity for PrP^Sc", "result": "slightly decreases affinity for PrP^Sc"}]}, {"substance": "YFCARWNWARDAMDYWG [LH3A9]", "values": [{"measurement": "Specificity", "result": "PrP^Sc"}]}, {"substance": "H-YFCARWNWERDAMDYWG-OH [CDR3H]", "values": [{"measurement": "Affinity", "result": 0}, {"measurement": "Specificity", "result": "PrP^Sc"}]}, {"substance": "YFCARWNWERDAMAYWG [LH3A14]", "values": [{"measurement": "Affinity", "setting": "[1]", "result": "(+)"}, {"measurement": "change of affinity for PrP^Sc", "setting": "[2]", "result": "slightly increase affinity for PrP^Sc"}, {"measurement": "Specificity", "setting": "[3]", "result": "PrP^Sc"}]}, {"substance": "YFCARWNWERDAMRYWG [LH3R14]", "values": [{"measurement": "Specificity", "result": "PrP^Sc"}]}, {"substance": "YFCARWAWERDAMDYWG [LH3A7]", "values": [{"measurement": "Affinity", "setting": "[1]", "result": "(+)"}, {"measurement": "change of affinity for PrP^Sc", "setting": "[2]", "result": "slightly increase affinity for PrP^Sc"}, {"measurement": "Specificity", "setting": "[3]", "result": "PrP^Sc"}]}, {"substance": "YFCARWNAERDAMDYWG [LH3A8]", "values": [{"measurement": "Specificity", "result": "PrP^Sc"}]}, {"substance": "YFCAAWNWERDAMDYWG [LH3A5]", "values": [{"measurement": "Specificity", "result": "PrP^Sc"}]}, {"substance": "YFCARWNWEADAMDYWG [LH3A10]", "values": [{"measurement": "Specificity", "setting": "[2]", "result": "binds to PrP^C"}, {"measurement": "Specificity", "setting": "[3]", "result": "PrP^C"}]}, {"substance": "YFCARWNWRRDAMDYWG [LH3R9]", "values": [{"measurement": "Affinity", "setting": "[1]", "result": "(+)"}, {"measurement": "change of affinity for PrP^Sc", "setting": "[2]", "result": "slightly increase affinity for PrP^Sc"}, {"measurement": "Specificity", "setting": "[3]", "result": "PrP^Sc"}]}, {"substance": "YFCARWNWEDDAMDYWG [LH3D10]", "values": [{"measurement": "Affinity", "result": "(+)"}, {"measurement": "Specificity", "result": "PrP^Sc"}, {"measurement": "change of affinity for PrP^Sc", "result": "slightly increase affinity for PrP^Sc"}]}, {"substance": "YFCARWNWERAAMDYWG [LH3A11]", "values": [{"measurement": "Specificity", "result": "PrP^Sc"}]}, {"substance": "YFCARWNWERRAMDYWG [LH3R11]", "values": [{"measurement": "Affinity", "setting": "[1]", "result": "+"}, {"measurement": "change of affinity for PrP^Sc", "setting": "[2]", "result": "increase affinity for PrP^Sc"}, {"measurement": "Specificity", "setting": "[3]", "result": "PrP^Sc"}]}, {"substance": "YFCARWNWERDAADYWG [LH3A13]", "values": [{"measurement": "Affinity", "setting": "[1]", "result": "+"}, {"measurement": "change of affinity for PrP^Sc", "setting": "[2]", "result": "increase affinity for PrP^Sc"}, {"measurement": "Specificity", "setting": "[3]", "result": "PrP^Sc"}]}, {"substance": "YFCARWNWERDAMDAWG [LH3A15]", "values": [{"measurement": "Specificity", "result": "PrP^Sc"}]}, {"substance": "YFAARWNWERDAMDYWG [LH3A3]", "values": [{"measurement": "Specificity", "result": "PrP^Sc"}]}, {"substance": "YFCARANWERDAMDYWG [LH3A6]", "values": [{"measurement": "Specificity", "result": "PrP^Sc"}]}]}
